The record followed here is patent US20140243401A1, “METHODS OF SCREENING COMPOUNDS THAT ARE CYTOTOXIC TO TUMOR CELLS AND METHODS OF TREATING TUMOR CELLS USING SUCH COMPOUND” (The Johns Hopkins University, priority 2010, published 2014).

Structures are written as SMILES. ≈ marks a conversion by molar mass, not a printed value.

In assay [1] the test system is Human colon cancer cell line. The assay is described as follows: XTT cytotoxicity assay, human colon cancer cell line. In kind it is cell-based. The following applies: 1 human colon cancer cell line, read-out: LC50 (the source's name). Here is the method: (§1) Cytotoxicity can be easily measured using XTT assays, which provide an indication of mitochondrial activity. The XTT assay is a non-radioactive alternative for the [^51Cr] release cytotoxicity assay. XTT is a tetrazolium salt that is reduced to a formazan dye only by metabolically active, viable cells. The reduction of XTT is measured spectrophotometrically as OD490-OD650. Thus, cells that are actively metabolizing will form reaction product when subjected to XTT measurement.
(§2) For this experiment, cells were cultured under standard culture conditions. MCF7 human breast cancer cells were cultured in DMEM containing 5 mM glucose medium with 10% fetal calf serum, 0.01 mg/ml insulin and 1% penicillin/streptomycin. To measure the cytotoxicity of specific compounds against cancer cells, 9×10^3 MCF7 cells were plated per well in 96-well plates. Following overnight culture, the compounds, dissolved in DMSO, were added to the wells in 1 μl volume at specified concentrations. Vehicle controls were run for each experiment. Each condition was run in triplicate. […] Plates were read at OD490 on a PerkinElmer Victor 1420. […]
(§3) Using the XTT assay, LC50 values for C31 were determined for numerous human cancer cell lines and human hepatocytes, as shown in the following table: […]
A general note: Tetrazolium assays rely on reduction of a dye to a coloured formazan, in cell work by metabolically active cells.

The subject of another assay is Human hepatoma cell line. Description: XTT cytotoxicity assay, human hepatoma cell line. In kind it is cell-based. The settings on record: 1 human hepatoma cell line, read-out: LC50 (the source's name). Here is the method:
as §1, §2, §3

A further assay deals with MCF7 cells. Description: 14C-acetate incorporation into lipids in MCF7 cells. Format: cell-based, human. The settings on record: for IC50: Homo sapiens, MCF7 cells. Here is the method:
MCF7 human breast cancer cells (a cell line which overexpresses FAS) were cultured in DMEM containing 5 mM glucose medium with 10% fetal calf serum, 0.01 mg/ml insulin and 1% penicillin/streptomycin. For measurement of fatty acid synthesis cells were cultured in 24-well plates at 5×10^4 per well and incubated overnight. Fatty acid synthesis was assayed by a 2 h pulse of [U^14C]acetate, 1 μCi/well, followed by Folch extraction and scintillation counting. Test compounds were added with the addition of drugs as described. Controls were treated with DMSO alone.
MCF7 human breast cancer cells were cultured in DMEM containing 1 mM or 5 mM glucose in the medium with 10% fetal calf serum, 0.01 mg/ml insulin and 1% penicillin/streptomycin. The cells were grown in two oxygen conditions, normoxia (21% 02) or hypoxia (1% 02). For measurement of fatty acid synthesis cells were cultured in 24-well plates at 5×10^4 per well and incubated overnight. Fatty acid synthesis was assayed by a 2 h pulse of [U^14C]acetate, 1 μCi/well, followed by Folch extraction and scintillation counting with the addition of drugs as described. Controls were treated with DMSO alone.

The test system of assay [2] is HCT116 human colon cancer xenograft. Description: tumor xenograft size, HCT116. The settings on record: 50 mg/kg. Format: in vivo, Athymic Nude mice. As for the experimental part: Xenograft studies were performed using various mmFAS inhibitors disclosed herein. Human cancer xenograft studies are known in the art. (See Pizer et al., Cancer Res. 56:1189-1193, 1996; Pizer et al., Cancer Res. 60: 213-218, 2000; Testa et al., Oncogene 24: 7455-7464, 2005).
In particular, C31 mouse efficacy studies were conducted in order to evaluate anti-neoplastic activity of C31 in vivo. Athymic Nude mice were implanted with HCT116 human colon, SKOV3 human ovarian or OVCAR3 human ovarian cancer cell lines and were treated when the grown tumor xenografts reached at least 150 to 200 mm^3.^1 ^1 Compounds were solubilized in TEP (80% polyethylene glycol (PEG) 400, 10% ethanol, 10% tween-80) in a volume of 50 μL.

Another assay concerns MCF 7 cells. Description: clonogenic assay. The settings on record: MCF 7, FIG. 4(C). Format: cell-based, human. Here is the method: In this assay, the effectiveness of specific agents on cell survival and proliferation can be measured in a functional sense. After treatment, surviving cells are re-plated to determine whether the surviving cells are still capable of proliferation. Therefore, this if a more direct measure of cell survival and function.
4×10^5 cells were plated in 25 cm^2 flasks. After overnight culture, cells are treated with compounds for specified times and concentrations. After drug treatment, cells are trypsinized and equal numbers of treated and control cells are plated in triplicate in 60-mm dishes at a density of 500 cells/dish in medium without drugs. Clones are stained and counted after 7-10 days
MCF 7 cells were treated with vehicle, C31 at increasing doses, or Riv7d.

The target in another assay is T1, Type I cytosolic FAS (Homo sapiens, UniProt P49327).
T1 construct: incorporation into lipid in MCF7 human breast cancer cell lysates; endogenous in cells; host or cells: MCF7 human breast cancer cell lysate
T1 sequence (P49327 whole entry): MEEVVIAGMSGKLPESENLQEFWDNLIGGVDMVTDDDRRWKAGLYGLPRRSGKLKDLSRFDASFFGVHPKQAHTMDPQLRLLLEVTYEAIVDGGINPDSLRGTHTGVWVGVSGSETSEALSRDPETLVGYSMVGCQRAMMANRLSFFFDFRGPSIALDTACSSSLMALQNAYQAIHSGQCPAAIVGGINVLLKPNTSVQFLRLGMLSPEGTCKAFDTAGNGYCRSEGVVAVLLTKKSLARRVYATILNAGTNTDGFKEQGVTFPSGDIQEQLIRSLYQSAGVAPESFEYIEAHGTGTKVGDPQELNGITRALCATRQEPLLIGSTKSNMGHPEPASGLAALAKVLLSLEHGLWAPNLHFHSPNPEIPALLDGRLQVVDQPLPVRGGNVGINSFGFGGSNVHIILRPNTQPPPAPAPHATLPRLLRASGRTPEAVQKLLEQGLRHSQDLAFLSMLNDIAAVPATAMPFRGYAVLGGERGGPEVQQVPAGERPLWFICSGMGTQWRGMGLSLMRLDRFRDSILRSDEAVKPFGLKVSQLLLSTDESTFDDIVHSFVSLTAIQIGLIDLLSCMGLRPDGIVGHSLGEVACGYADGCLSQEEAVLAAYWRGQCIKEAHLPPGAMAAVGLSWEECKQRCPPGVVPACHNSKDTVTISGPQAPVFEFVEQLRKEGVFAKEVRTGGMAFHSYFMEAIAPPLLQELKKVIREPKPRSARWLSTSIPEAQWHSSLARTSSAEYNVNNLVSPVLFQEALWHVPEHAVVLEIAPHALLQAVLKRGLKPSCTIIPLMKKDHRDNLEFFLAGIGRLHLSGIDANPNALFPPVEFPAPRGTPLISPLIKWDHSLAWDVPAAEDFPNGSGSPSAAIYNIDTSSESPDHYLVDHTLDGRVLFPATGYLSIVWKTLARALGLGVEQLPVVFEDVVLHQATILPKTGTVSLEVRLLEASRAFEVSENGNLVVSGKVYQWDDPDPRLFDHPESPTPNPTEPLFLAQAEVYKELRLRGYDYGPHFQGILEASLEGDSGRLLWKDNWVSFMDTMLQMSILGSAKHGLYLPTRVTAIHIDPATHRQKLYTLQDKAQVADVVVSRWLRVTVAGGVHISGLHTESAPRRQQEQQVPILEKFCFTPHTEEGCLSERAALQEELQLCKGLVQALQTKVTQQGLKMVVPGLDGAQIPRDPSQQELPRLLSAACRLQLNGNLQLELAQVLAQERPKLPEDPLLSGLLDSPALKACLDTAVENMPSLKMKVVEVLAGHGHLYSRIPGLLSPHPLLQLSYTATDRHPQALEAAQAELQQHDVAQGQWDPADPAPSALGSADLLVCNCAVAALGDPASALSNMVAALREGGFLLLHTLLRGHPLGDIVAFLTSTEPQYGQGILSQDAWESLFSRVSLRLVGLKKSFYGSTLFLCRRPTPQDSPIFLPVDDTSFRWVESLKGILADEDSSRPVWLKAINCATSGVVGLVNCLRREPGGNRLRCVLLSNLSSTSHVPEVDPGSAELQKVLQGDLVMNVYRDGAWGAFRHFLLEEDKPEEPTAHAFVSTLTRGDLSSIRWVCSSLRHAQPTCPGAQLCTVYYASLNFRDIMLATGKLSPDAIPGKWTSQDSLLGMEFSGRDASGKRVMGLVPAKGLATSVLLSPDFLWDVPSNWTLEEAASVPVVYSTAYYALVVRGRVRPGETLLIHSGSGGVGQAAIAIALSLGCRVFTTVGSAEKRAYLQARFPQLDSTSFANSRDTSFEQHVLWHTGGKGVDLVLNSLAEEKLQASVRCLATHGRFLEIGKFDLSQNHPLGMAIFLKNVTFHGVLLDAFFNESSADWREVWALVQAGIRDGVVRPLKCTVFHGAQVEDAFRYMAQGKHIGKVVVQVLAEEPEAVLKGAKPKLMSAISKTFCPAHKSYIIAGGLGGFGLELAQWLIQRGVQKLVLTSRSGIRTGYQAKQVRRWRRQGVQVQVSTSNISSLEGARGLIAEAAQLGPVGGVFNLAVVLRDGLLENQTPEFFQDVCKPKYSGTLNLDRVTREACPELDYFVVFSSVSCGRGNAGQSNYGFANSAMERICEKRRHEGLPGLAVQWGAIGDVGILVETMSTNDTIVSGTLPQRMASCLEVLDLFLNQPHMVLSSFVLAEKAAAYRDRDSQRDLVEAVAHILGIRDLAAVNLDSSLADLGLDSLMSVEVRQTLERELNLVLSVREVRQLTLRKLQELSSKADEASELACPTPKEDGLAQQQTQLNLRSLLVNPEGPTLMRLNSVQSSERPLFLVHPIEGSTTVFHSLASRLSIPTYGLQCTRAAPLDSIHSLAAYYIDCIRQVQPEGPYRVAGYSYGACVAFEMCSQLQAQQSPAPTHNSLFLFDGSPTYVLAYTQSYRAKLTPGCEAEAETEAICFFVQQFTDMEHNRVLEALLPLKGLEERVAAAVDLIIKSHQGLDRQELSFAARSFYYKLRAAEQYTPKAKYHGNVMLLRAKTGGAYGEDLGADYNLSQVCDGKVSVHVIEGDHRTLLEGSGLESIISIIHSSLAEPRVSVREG
Description: Type I cytosolic FAS activity, [14C]malonyl-CoA incorporation into lipid in MCF7 cell lysates. In kind it is biochemical. The following applies: MCF7 human breast cancer cell lysates, read-out: IC50, inhibition of Type I cytosolic FAS activity. The source says:
The invention provides for methods that involve determining and/or measuring Type I and mmFAS activity. Methods of measuring Type I FAS activity are known in the art. (See, e.g., U.S. Pat. Nos. 5,759,837 and 5,981,575, which are hereby incorporated by reference in their entirety). For example, Type I FAS activity may be measured in whole cells by monitoring the incorporation of [14C]acetate into total lipids. In cell lysates, Type I FAS activity may be measured by monitoring the incorporation of [14C] from malonyl CoA into total lipids. Alternatively, Type I FAS activity may be determined using purified enzyme with acetyl CoA and malonyl CoA as substrates by measuring incorporation of radioactivity or measuring oxidation of NADPH spectrophotometrically. To test the inhibition of Type I FAS activity, a test compound is added to the reaction mixture.

As usually defined, the IC50 is the concentration at which inhibition is half-maximal. `CCCCCCCCC1(C)SC(=O)C=C1OCC(=O)Nc1ccc(Cl)cc1` (stereo not drawn) [Compound C31]: the CC50 in assay [1] came to 4 µg/mL (≈ 9.76 µM); with Human hepatoma cell line it was 5 µg/mL (≈ 12.2 µM). Besides, the IC50 in the assay with MCF7 cells (first experiment, FIG. 1) was found to be 17 µg/mL; in the assay with MCF7 cells (second experiment), 13.6 µM; at Type I cytosolic FAS, 17.8 µM. In addition, the “inhibition of FAS activity (14C-acetate incorporation)” value with MCF7 cells (MCF7, 1 mM or 5 mM glucose, 21% or 1% O2, FIG. 14) is on record as “increasingly effective at inhibiting FAS activity”. Besides, the “Average Tumor Size Endpoint (% Change)” value is listed as −59 % Change in assay [2] (Study 72406, HCT-116, IP b.i.d. 8 days) and “+256 % Change” in assay [2] (Study 101707, HCT-116, oral b.i.d. 16 days). Further, the “viability in clonogenic assay” value with MCF 7 cells is “dose-dependent decrease in viability”.
